# Measured values published in a melting point compilation (Tetko et al.; mined from patent text by program, amines drawn as free bases though some values may be those of a salt).
row,SMILES,melting point [°C]
1,CN1C(=O)C2(COc3cc4c(cc32)OCCO4)c2c(C(=O)Oc3ccccc3)cccc21 (stereo not given),184 to 186
2,CC(C)c1ccc(N(Cc2ccc(OCc3ccccc3)cc2)C(=O)C2CCCc3ccccc32)cc1 (stereo not given),120 to 121
3,COC(=O)COc1ccc(C(C)=O)c(O)c1,101 to 103
4,CC(=O)C(=Cc1cc(Cl)cc(Cl)c1)C(C)=O,85 to 87
5,CC(C)c1cc(C(O)(C(F)(F)F)C(F)(F)F)cc(C(C)C)c1NCC(=O)O,130 to 132
6,CCOC(=O)c1c2n(c3c(Cl)c(F)c(F)cc3c1=O)C(C)S2 (stereo not given),191 to 194
7,NC(=O)N1CCCN(NC(=O)c2cc(=O)c(O)c[nH]2)C1=O,215 to 220
8,C#CCOc1c(-c2ccccc2)c(=O)[nH]c2cc(Cl)ccc12,183 to 185
9,CCC(O)c1cnc2c(C)c(NC(=O)c3ccc(-c4ccc(F)cc4)cc3)ccc2c1 (stereo not given),204 to 208
10,O=S(=O)(Nc1ccc(C(F)(F)F)nc1I)c1ccccc1,131
11,O=C1c2ccccc2C(=O)N1CCCC(O)CF (stereo not given),85
12,Cc1ccc2c(c1)NC(=O)c1cc(C)sc1O2,175 to 179
13,CCn1nc(C(N)=O)cc1CC(C)C,125 to 126
14,COc1ccc(N(C)c2nc(NC(=O)C(C)(C)C)nc3[nH]c4ccccc4c23)cc1,288 to 289
15,CCOCc1nc2c(N)nc3ccccc3c2n1NC1CCCCC1,143 to 145
16,CCCCOc1ccc(S(=O)(=O)C2(C(=O)NO)CCN(CC)CC2)cc1,98
17,CCCCn1nc(CCc2cccs2)nc1Cc1ccc(-c2ccccc2-c2nnn[nH]2)nc1,116 to 118
18,COc1ccc(C(O)(Cc2ccncc2)c2ccncc2)cc1OC1CCCC1 (stereo not given),99 to 103
19,CC(c1oc2ccccc2c(=O)c1-c1cccc(F)c1)n1nc(-c2ccccc2CO)c2c(N)ncnc21 (stereo not given),185 to 189
20,Cc1ccc(CCCOc2c(C)cc(-c3nnn(C)n3)cc2C)nn1,114 to 115
21,Cc1ccc2c(c1)C(=O)c1nc3ccccc3c(=O)n1-2,283 to 285
22,CNC1CC=C(c2c[nH]c3ccc([N+](=O)[O-])cc23)CC1 (stereo not given),208 to 210
23,CCCC1NCCc2ccc(NC(=N)c3cccs3)cc21 (stereo not given),127 to 128
24,O=C(O)c1cccc2cc3ccccc3cc12,245
25,COC(=O)CCc1ccc(-n2c(C)cn(-c3ccc(C#N)cc3)c2=O)cc1,168 to 170

row,SMILES,melting point [°C]
1,COCOCc1nc(-c2ccccc2)oc1C=O,51 to 52
2,Cc1csc2ccc(C3CCN(Cl)CC3)cc12,57 to 61.5
3,O=C(NCC1(O)CCCCCC1)c1c(Cl)ccc2nc(N3CC[C@H](NCCO)C3)ccc12,138 to 140
4,CCCC(=O)NS(=O)(=O)c1cccc(-c2cccc(-c3cc(-c4ccc(C(F)(F)F)cc4)cc(C)n3)n2)c1,188
5,O=C(c1ccc(Cl)cc1)c1ccc2c(c1)C(c1cccc(Cl)c1)=NCc1nnnn1-2,220
6,CSC(Nc1cc(C(F)(F)F)cc(C(F)(F)F)c1)=C(C#N)S(C)(=O)=O,129 to 131
7,C=CC(O)c1ccc2ccccc2c1 (stereo not given),30 to 32
8,O=C1C(=O)c2ccccc2C2=C1SCC1(CCN(C(=O)C=Cc3ccccc3Cl)CC1)O2,110 to 115
9,O=C(O)CCCNC1=NS(=O)(=O)c2ccccc21,200 to 202
10,CN1CCC(c2c[nH]c3ccc(-n4ccnn4)cc23)CC1,251 to 254
11,COc1ccc(N2CCOCC2)c2sc(C#N)nc12,145 to 147
12,CC1(C)O[C@]23C[C@H]1CC[C@]2(C)CCCC3=O,55 to 56
13,CNC(=NC#N)NCCCCc1csc(NC(=N)N)n1,165 to 168
14,CCN1c2ncccc2C(=O)N(C)c2ccc(-c3c[nH]c(C#N)c3)nc21,268 to 269
15,Cc1cc(C)cc(C#N)c1,51 to 52
16,Cc1ccc2c(c1NC(=O)NCC1(c3ccccc3)CCCC1)OC(C)(C)C2,186
17,Cc1ccc(C2=NCCN2C(=O)Nc2ccccc2)cc1C,139 to 142
18,CCOC(=O)c1cnc2sccc2c1Sc1ccc(C)cc1,60 to 63
19,CCOCn1nccc1C(O)c1ccc(OC)c(Cl)c1Cl (stereo not given),155 to 157
20,CCOC(=O)c1[nH]c2cc(Cl)cc(Cl)c2c1NCCCC(=O)c1ccccc1,203 to 205
21,CCOC(=O)c1cn(CC)c2nc(N3CCNCC3)c(F)cc2c1=O,150 to 151
22,OC1CCN(Cc2nc(-c3ccc4c(c3)Nc3ccccc3S4)cs2)CC1,205 to 207
23,COC(=O)C(Oc1ccc(Cl)cc1)c1ccc(Oc2ccc(S(C)(=O)=O)cc2)cc1 (stereo not given),182 to 183
24,Cn1nc(N=Cc2ccncc2)nc1NCCCOC1=CCC=C(CN2CCCC2)C1,166 to 167
25,CNc1nc(C)c(-c2ccnc(Nc3cccc(CNC(C)=O)c3)n2)s1,253 to 255

row,SMILES,melting point [°C]
1,CCNc1ncnc2c1ncn2Cc1c(F)cccc1Cl,175 to 176
2,CCCCCCCCCCOc1ccc(-c2ccc(C(=O)O)cc2)cc1,246 to 250
3,O=C(O)C[C@@H]1Cc2cccc3c2[C@@H](CCC3)C1 (relative stereo),115 to 116
4,CC12C=CC(=O)C=C1CCC1C2C(O)CC2(C)C1CCC2(O)C(O)C(=O)O (stereo not given),213 to 214
5,CCCCCCCCCCNC(=O)C1=C(C(=O)Nc2cc(OC3CCCC3)c(Cl)cc2F)CCCC1,128 to 130
6,CC(O)=C1C(=O)CC(c2cc(Cl)sc2Cl)CC1=O (stereo not given),107 to 108
7,COC(=O)c1ccc(-c2oc3cc(NS(C)(=O)=O)ccc3c(=O)c2OS(C)(=O)=O)cc1,250
8,COc1ccccc1C(C)(O)c1ccco1 (stereo not given),64 to 66
9,Cc1cc(C)cc(Oc2nc(Cl)nc(Cl)c2C(C)C)c1,107 to 108
10,CC(C)(C)NC(=O)NCc1ccc2c(c1)C(=O)N(C1CCC(=O)NC1=O)C2=O (stereo not given),202 to 204
11,CCOC(=O)c1cccc(-c2cc(C(=O)OCC)c(N)[nH]2)c1,136 to 137
12,CC(Cc1c[nH]c2ccccc12)(NC(=O)OC12CC3CC(CC(C3)C1)C2)C(=O)O (racemic),206 to 218
13,COc1cc(C)c(C(C)O)cc1NC(=S)N1CCN(c2cc(Cl)cc(Cl)c2)CC1 (stereo not given),166 to 168
14,CN(CCCNC(=NCCCOc1cccc(CN2CCCCC2)c1)NC#N)CCN(Cc1ccc(F)cc1)c1ccccn1,65 to 68
15,COC(=O)C(C)N(C(=O)CCl)c1c(Cl)cccc1Cl (stereo not given),82 to 85
16,O=C(Nc1ccccn1)c1ccc(OC(F)F)c2oc3ccc(C(F)(F)F)cc3c12,169 to 170
17,CCOC(=O)c1c(CN(CC)CC)nc2cc(OC)c(OC)cc2c1-c1ccc(Cl)c(Cl)c1,157 to 158
18,O=C1CCC(N2Cc3cc(CNC(=O)Nc4ccc(Cl)c(C(F)(F)F)c4)ccc3C2=O)C(=O)N1 (stereo not given),261 to 263
19,COc1ccc(-c2cnc(-c3ccc(F)cc3)nc2-c2ccc(OC)cc2)cc1,129 to 130
20,COc1ccc(COc2c(C)c(C)c3c(c2C)CC2(CCN(Cc4ccccc4)CC2)O3)cc1,85 to 86
21,CC(=O)NC(Cc1csc2ccccc12)C(=O)CCc1cc(C(F)(F)F)cc(C(F)(F)F)c1 (stereo not given),83 to 84
22,CC(=O)Nc1ccc(N2CCN(Cc3ccccc3)CC2)cc1,159 to 161
23,CCc1cc(OCc2ccccc2)ccc1C(=O)NNC(=O)Cc1cccc(O)c1,190 to 191
24,CC(=O)N1c2ccccc2CCc2ccc(C(=O)O)cc21,189 to 190
25,CC(C)c1ccc(S(=O)(=O)N2CCCC2c2ccc(F)cc2)cc1 (racemic),77

row,SMILES,melting point [°C]
1,C[C@@H](c1ccc(-c2ccc(=O)n(C)c2)cc1)N1CC[C@](CC(C)(C)O)(c2ccccc2)OC1=O,180 to 181
2,CCC1(C)Cc2cc(OC)c(Cl)c(Cl)c2C1=O (stereo not given),121
3,CN1C(=O)CN(C(N)=O)C(c2ccccc2)c2cc(Cl)ccc21 (stereo not given),214 to 217
4,O=C(O)Cn1cc(Cc2nc3cc(C(F)(F)F)ccc3s2)c2ccccc21,233 to 234
5,COc1ccc(CC(C)(C)CO)cc1OC,48.5 to 50
6,O=C1CC(c2cccnc2)=NN1c1ccccc1,102 to 103
7,CCOC(=O)C1=C(CCC(OC(=O)c2ccc([N+](=O)[O-])cc2)c2ccccc2)NC(C)=C(C(=O)OC)C1c1cccc([N+](=O)[O-])c1 (stereo not given),75 to 90
8,CCCCCCCCCCCCCCCCCC(=O)OCCOc1ccc(C2C(=O)Oc3c2cc(C(C)(C)C)cc3C(C)(C)C)cc1 (stereo not given),54 to 60
9,CC(=O)c1ccc(S(=O)(=O)N2CCCC2c2ccc(F)cc2)cc1 (racemic),148
10,Cc1nc2c(N)nc3cccnc3c2n1CC1(O)CCN(S(C)(=O)=O)CC1,> 255
11,C=Cc1ccc2c(c1)c1ccccc1n2CC,66 to 67
12,Cc1ccc(S(=O)(=O)NP(N)(N)=O)cc1,114 to 118
13,CCOC(=O)c1ncn2c1CN(C)C(=O)c1cc(C#N)ccc1-2,184
14,Cc1c(C(=O)Nc2ccc(N3CCCCC3)c(C#N)c2)cnn1-c1ccc(F)cc1,196 to 197
15,COC(=O)C1=C(C)NC2(O)COC(=O)C2C1c1cccc([N+](=O)[O-])c1 (stereo not given),147 to 149
16,COc1cc2[nH]c(C(=O)O)cc(=O)c2c2cccnc12,286 to 288
17,CC(C)c1cc(S(N)(=O)=O)c(C(C)C)cc1Br,145 to 152
18,Cn1c([N+](=O)[O-])cnc1CSc1ccccn1,108
19,CCOC(=O)CN1c2ccccc2Oc2ccccc21,96 to 97
20,O=Cc1cccc(-c2cnc3cnc(-c4ccc(O)cc4)nc3c2)c1,266
21,Cc1ccn2c(C(=O)O)c(C)nc2c1,180 to 183
22,CC1(C)Oc2c(ccc(Cl)c2N)C1=O,91.5 to 93.5
23,COCc1cn(-c2cccc(C(F)(F)F)c2)nc(C(C)=O)c1=O,141 to 143
24,COc1cc2nc(N3CCN(c4ccnc(Cl)n4)CC3)cc(N)c2cc1OC,266
25,CCn1ncc2nc(C(=O)O)c(C)nc21,148 to 149
